In one data set the target is T1, glucagon receptor (Homo sapiens, UniProt P47871).
T1 construct: expressed in transfected cells
Put plainly: Assay (I) Glucagon activity (cAMP biosensor, FLIPR). It is filed as cell-based.

Data set [1] is described as follows: Assay (X) Chemical stability assessment by RP-UPLC. It is filed as physicochemical. The note with it: pH 8.15, 14 days at 37° C. vs 5° C., 333 μM.

This note sets out measurements from US9486506B2 (Novo Nordisk A/S, priority 2011, dated 2016).

The EC50 is the concentration giving half of the maximal effect.

SMILES strings stand for the structures. Numbered stars: 1 amine (or outer) side, 2 acyl side, 3 side chain; on linkers, the order of the positions; unused ones are H or OH. Side chains are listed from the residue outwards. Peptide text beside a SMILES is read from it. * marks the point of attachment. C18 diacid = O=C(O)CCCCCCCCCCCCCCCCC(=O)*; C16 diacid = O=C(O)CCCCCCCCCCCCCCC(=O)*; γGlu = O=C(O)[C@H](CCC(=O)[*:2])N[*:1]; AEEA = NCCOCCOCC(=O)O

T1 sequence (P47871 26-477): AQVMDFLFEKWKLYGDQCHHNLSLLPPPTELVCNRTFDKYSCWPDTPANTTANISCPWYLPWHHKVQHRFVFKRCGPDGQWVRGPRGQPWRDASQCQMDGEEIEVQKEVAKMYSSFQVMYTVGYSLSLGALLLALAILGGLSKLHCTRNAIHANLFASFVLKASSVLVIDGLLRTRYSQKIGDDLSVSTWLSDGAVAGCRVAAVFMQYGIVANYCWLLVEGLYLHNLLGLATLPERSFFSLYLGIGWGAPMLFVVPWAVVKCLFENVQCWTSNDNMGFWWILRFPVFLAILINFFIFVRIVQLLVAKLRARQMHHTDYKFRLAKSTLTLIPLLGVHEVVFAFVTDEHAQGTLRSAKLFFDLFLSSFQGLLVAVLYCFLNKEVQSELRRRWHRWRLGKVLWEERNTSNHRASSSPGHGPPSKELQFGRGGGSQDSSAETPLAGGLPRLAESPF

At glucagon receptor, `CC(C)C[C@H](NC(=O)[C@H](Cc1ccc(O)cc1)NC(=O)[C@H](CCCNC(=N)N)NC(=O)[C@H](CO)NC(=O)[C@H](Cc1ccc(O)cc1)NC(=O)[C@H](CC(=O)O)NC(=O)[C@H](CO)NC(=O)[C@@H](NC(=O)[C@H](Cc1ccccc1)NC(=O)[C@@H](NC(=O)CNC(=O)[C@H](CCC(N)=O)NC(=O)[C@H](CO)NC(=O)[C@@H](N)Cc1c[nH]cn1)[C@@H](C)O)[C@@H](C)O)C(=O)N[C@@H](CC(=O)O)C(=O)N[C@@H](C)C(=O)N[C@@H](CCCNC(=N)N)C(=O)N[C@@H](CCCNC(=N)N)C(=O)N[C@@H](C)C(=O)N[C@@H](CCC(N)=O)C(=O)N[C@@H](CC(=O)O)C(=O)N[C@@H](Cc1ccccc1)C(=O)N[C@H](C(=O)N[C@@H](CCCCNC(=O)CC[C@H](NC(=O)CC[C@H](NC(=O)CC[C@H](NC(=O)CC[C@H](NC(=O)CCCCCCCCCCCCCCCCC(=O)O)C(=O)O)C(=O)O)C(=O)O)C(=O)O)C(=O)N[C@@H](Cc1c[nH]c2ccccc12)C(=O)N[C@@H](CC(C)C)C(=O)N[C@@H](CC(C)C)C(=O)N[C@@H](CO)C(=O)N[C@H](C(=O)O)[C@@H](C)O)C(C)C` [Example 96, N^ε24-[(4S)-4-carboxy-4-[[(4S)-4-carboxy-4-[[(4S)-4-carboxy-4-[[(4S)-4-carboxy-4-(17-carboxyheptadecanoylamino)butanoyl]amino]butanoyl]amino]butanoyl]amino]butanoyl]-[Arg12,Ala16,Lys24,Leu27,Ser28]-Glucagon] (H-HSQGTFTSDYSRYLDARRAQDFVK([γGlu-γGlu-γGlu-γGlu-C18 diacid])WLLST-OH; N-terminus and C-terminus assumed) gave an EC50 of 0.062 nM. In addition, the “Chemical stability [Purity loss/14 days 37 C.]” value in data set [1] was 4.5%.

`CC(C)C[C@H](NC(=O)[C@H](Cc1ccc(O)cc1)NC(=O)[C@H](CCCNC(=N)N)NC(=O)[C@H](CO)NC(=O)[C@H](Cc1ccc(O)cc1)NC(=O)[C@H](CC(=O)O)NC(=O)[C@H](CO)NC(=O)[C@@H](NC(=O)[C@H](Cc1ccccc1)NC(=O)[C@@H](NC(=O)CNC(=O)[C@H](CCC(N)=O)NC(=O)[C@H](CO)NC(=O)[C@@H](N)Cc1c[nH]cn1)[C@@H](C)O)[C@@H](C)O)C(=O)N[C@@H](CC(=O)O)C(=O)N[C@@H](CCC(=O)O)C(=O)N[C@@H](CCCNC(=N)N)C(=O)N[C@@H](CCCNC(=N)N)C(=O)N[C@@H](C)C(=O)N[C@@H](CCC(N)=O)C(=O)N[C@@H](CC(=O)O)C(=O)N[C@@H](Cc1ccccc1)C(=O)N[C@H](C(=O)N[C@@H](CCCCNC(=O)CC[C@H](NC(=O)CC[C@H](NC(=O)COCCOCCNC(=O)COCCOCCNC(=O)CC[C@H](NC(=O)CCCCCCCCCCCCCCC(=O)O)C(=O)O)C(=O)O)C(=O)O)C(=O)N[C@@H](Cc1c[nH]c2ccccc12)C(=O)N[C@@H](CC(C)C)C(=O)N[C@@H](CC(C)C)C(=O)N[C@@H](CO)C(=O)N[C@H](C(=O)O)[C@@H](C)O)C(C)C` [Example 94, N^ε24-[(4S)-4-carboxy-4-[[(4S)-4-carboxy-4-[[2-[2-[2-[[2-[2-[2-[[(4S)-4-carboxy-4-(15-carboxypentadecanoylamino)butanoyl]amino]ethoxy]ethoxy]acetyl]amino]ethoxy]ethoxy]acetyl]amino]butanoyl]amino]butanoyl]-[Arg12,Glu16,Lys24,Leu27,Ser28]-Glucagon] (H-HSQGTFTSDYSRYLDERRAQDFVK([γGlu-γGlu-AEEA-AEEA-γGlu-C16 diacid])WLLST-OH; N-terminus and C-terminus assumed) yielded an EC50 at glucagon receptor of 0.029 nM. The “Chemical stability [Purity loss/14 days 37 C.]” value in data set [1] was 8.8%.

In the case of `CC(C)C[C@H](NC(=O)[C@H](Cc1ccc(O)cc1)NC(=O)[C@H](CCCCN)NC(=O)[C@H](CO)NC(=O)[C@H](Cc1ccc(O)cc1)NC(=O)[C@H](CC(=O)O)NC(=O)[C@H](CO)NC(=O)[C@@H](NC(=O)[C@H](Cc1ccccc1)NC(=O)[C@@H](NC(=O)CNC(=O)[C@H](CCC(N)=O)NC(=O)[C@H](CO)NC(=O)[C@@H](N)Cc1c[nH]cn1)[C@@H](C)O)[C@@H](C)O)C(=O)N[C@@H](CC(=O)O)C(=O)N[C@@H](C)C(=O)N[C@@H](CCCNC(=N)N)C(=O)N[C@@H](CCCNC(=N)N)C(=O)N[C@@H](C)C(=O)N[C@@H](CCC(N)=O)C(=O)N[C@@H](CC(=O)O)C(=O)N[C@@H](Cc1ccccc1)C(=O)N[C@H](C(=O)N[C@@H](CCCCNC(=O)CC[C@H](NC(=O)CC[C@H](NC(=O)COCCOCCNC(=O)COCCOCCNC(=O)CC[C@H](NC(=O)CCCCCCCCCCCCCCCCC(=O)O)C(=O)O)C(=O)O)C(=O)O)C(=O)N[C@@H](Cc1c[nH]c2ccccc12)C(=O)N[C@@H](CC(C)C)C(=O)N[C@@H](CC(C)C)C(=O)N[C@@H](CCC(N)=O)C(=O)N[C@H](C(=O)O)[C@@H](C)O)C(C)C` [Example 56, N^ε24-[(4S)-4-carboxy-4-[[(4S)-4-carboxy-4-[[2-[2-[2-[[2-[2-[2-[[(4S)-4-carboxy-4-(17-carboxyheptadecanoylamino)butanoyl]amino]ethoxy]ethoxy]acetyl]amino]ethoxy]ethoxy]acetyl]amino]butanoyl]amino]butanoyl]-[Ala16,Lys24,Leu27,Gln28]-Glucagon], it took 0.192 nM to reach a half-maximal effect at glucagon receptor (EC50). The “Chemical stability [Purity loss/14 days 37 C.]” value in data set [1] is given as 8.1%.

`CC(C)C[C@H](NC(=O)[C@H](Cc1c[nH]c2ccccc12)NC(=O)[C@H](CCCCNC(=O)CC[C@H](NC(=O)CC[C@H](NC(=O)COCCOCCNC(=O)COCCOCCNC(=O)CC[C@H](NC(=O)CCCCCCCCCCCCCCCCC(=O)O)C(=O)O)C(=O)O)C(=O)O)NC(=O)[C@@H](NC(=O)[C@H](Cc1ccccc1)NC(=O)[C@H](CC(=O)O)NC(=O)[C@H](CCC(N)=O)NC(=O)[C@H](C)NC(=O)[C@H](CCCNC(=N)N)NC(=O)[C@H](CCCNC(=N)N)NC(=O)[C@@H](NC(=O)[C@H](CC(=O)O)NC(=O)[C@H](CC(C)C)NC(=O)[C@H](Cc1ccc(O)cc1)NC(=O)[C@H](CCCCN)NC(=O)[C@H](CO)NC(=O)[C@H](Cc1ccc(O)cc1)NC(=O)[C@H](CC(=O)O)NC(=O)[C@H](CO)NC(=O)[C@@H](NC(=O)[C@H](Cc1ccccc1)NC(=O)[C@@H](NC(=O)CNC(=O)[C@H](CCC(N)=O)NC(=O)[C@H](CO)NC(=O)[C@@H](N)Cc1c[nH]cn1)[C@@H](C)O)[C@@H](C)O)[C@@H](C)O)C(C)C)C(=O)N[C@@H](CC(C)C)C(=O)N[C@@H](CO)C(=O)N[C@H](C(N)=O)[C@@H](C)O` [Example 39, N^ε24-[(4S)-4-carboxy-4-[[(4S)-4-carboxy-4-[[2-[2-[2-[[2-[2-[2-[[(4S)-4-carboxy-4-(17-carboxyheptadecanoylamino)butanoyl]amino]ethoxy]ethoxy]acetyl]amino]ethoxy]ethoxy]acetyl]amino]butanoyl]amino]butanoyl]-[Thr16,Lys24,Leu27,Ser28]-Glucagon amide] yielded an EC50 at glucagon receptor of 0.039 nM. Also, the “Chemical stability [Purity loss/14 days 37 C.]” value in data set [1] is listed as 7.8%.

On glucagon receptor, `CC(C)C[C@H](NC(=O)[C@H](Cc1ccc(O)cc1)NC(=O)[C@H](CCCCN)NC(=O)[C@H](CO)NC(=O)[C@H](Cc1ccc(O)cc1)NC(=O)[C@H](CC(=O)O)NC(=O)[C@H](CO)NC(=O)[C@@H](NC(=O)[C@H](Cc1ccccc1)NC(=O)[C@@H](NC(=O)CNC(=O)[C@H](CCC(N)=O)NC(=O)[C@H](CO)NC(=O)[C@@H](N)Cc1c[nH]cn1)[C@@H](C)O)[C@@H](C)O)C(=O)N[C@@H](CCC(=O)O)C(=O)N[C@@H](CO)C(=O)N[C@@H](CCCNC(=N)N)C(=O)N[C@@H](CCCNC(=N)N)C(=O)N[C@@H](C)C(=O)N[C@@H](CCC(N)=O)C(=O)N[C@@H](CC(=O)O)C(=O)N[C@@H](Cc1ccccc1)C(=O)N[C@H](C(=O)N[C@@H](CCCCNC(=O)CC[C@H](NC(=O)CC[C@H](NC(=O)COCCOCCNC(=O)COCCOCCNC(=O)CC[C@H](NC(=O)CCCCCCCCCCCCCCC(=O)O)C(=O)O)C(=O)O)C(=O)O)C(=O)N[C@@H](Cc1c[nH]c2ccccc12)C(=O)N[C@@H](CC(C)C)C(=O)N[C@@H](CC(C)C)C(=O)N[C@@H](CO)C(=O)N[C@H](C(=O)O)[C@@H](C)O)C(C)C` [Example 69, N^ε24-[(4S)-4-carboxy-4-[[(4S)-4-carboxy-4-[[2-[2-[2-[[2-[2-[2-[[(4S)-4-carboxy-4-(15-carboxypentadecanoylamino)butanoyl]amino]ethoxy]ethoxy]acetyl]amino]ethoxy]ethoxy]acetyl]amino]butanoyl]amino]butanoyl]-[Glu15,Lys24,Leu27,Ser28]-Glucagon] yielded an EC50 of 0.071 nM. For the same molecule, the “Chemical stability [Purity loss/14 days 37 C.]” value in data set [1] was determined as 8.2%.

As to `CC(C)C[C@H](NC(=O)[C@H](Cc1ccc(O)cc1)NC(=O)[C@H](CCCNC(=N)N)NC(=O)[C@H](CO)NC(=O)[C@H](Cc1ccc(O)cc1)NC(=O)[C@H](CC(=O)O)NC(=O)[C@H](CO)NC(=O)[C@@H](NC(=O)[C@H](Cc1ccccc1)NC(=O)[C@@H](NC(=O)CNC(=O)[C@H](CCC(N)=O)NC(=O)[C@H](CO)NC(=O)[C@@H](N)Cc1c[nH]cn1)[C@@H](C)O)[C@@H](C)O)C(=O)N[C@@H](CC(=O)O)C(=O)N[C@@H](CCCNC(=N)N)C(=O)N[C@@H](CCCNC(=N)N)C(=O)N[C@@H](CCCNC(=N)N)C(=O)N[C@@H](C)C(=O)N[C@@H](CCC(N)=O)C(=O)N[C@@H](CC(=O)O)C(=O)N[C@@H](Cc1ccccc1)C(=O)N[C@H](C(=O)N[C@@H](CCCCNC(=O)CC[C@H](NC(=O)CC[C@H](NC(=O)COCCOCCNC(=O)COCCOCCNC(=O)CC[C@H](NC(=O)CCCCCCCCCCCCCCCCC(=O)O)C(=O)O)C(=O)O)C(=O)O)C(=O)N[C@@H](Cc1c[nH]c2ccccc12)C(=O)N[C@@H](CC(C)C)C(=O)N[C@@H](CC(C)C)C(=O)N[C@@H](CO)C(=O)N[C@H](C(=O)O)[C@@H](C)O)C(C)C` [Example 20, N^ε24-[(4S)-4-carboxy-4-[[(4S)-4-carboxy-4-[[2-[2-[2-[[2-[2-[2-[[(4S)-4-carboxy-4-(17-carboxyheptadecanoylamino)butanoyl]amino]ethoxy]ethoxy]acetyl]amino]ethoxy]ethoxy]acetyl]amino]butanoyl]amino]butanoyl]-[Arg^12,Arg^16,Lys^24,Leu^27,Ser^28]-Glucagon] (H-HSQGTFTSDYSRYLDRRRAQDFVK([γGlu-γGlu-AEEA-AEEA-γGlu-C18 diacid])WLLST-OH), at glucagon receptor, the EC50 is 0.355 nM. Besides, the “Chemical stability [Purity loss/14 days 37 C.]” value in data set [1] is given as 10.4%.
